Consider three compounds from patent US9498533B2, “Drug delivery compositions and methods” (Board of Regents of the University of Nebraska, priority 2011, dated 2016).

The subject of series [1] is breast cancer cells that overexpress HER2. As to the kind of experiment: HER2 expression and Akt activation in breast cancer cells. In kind it is cell-based.
The subject of series [2] is MCF-7 human breast cancer cells. The series is described as follows: In vitro cytotoxicity, MTT assay. As to conditions: n = 4. The format is cell-based. How it is done:
Cytotoxicity of DOX-loaded cl-micelles was assessed in MCF-7 cells by a standard MTT assay as described (Kim et al. (2009) J. Control Release, 138:197-204). Briefly, cells were seeded in a 96-well microtiter plates with 5,000 cells per well and allowed to adhere for 24 hours prior to the assay. Cells were exposed to various doses (0-50 μg/ml on DOX basis) of DOX alone, polymer micelles alone, and DOX-loaded cl-micelles for 24 hours at 37° C., followed by washing with PBS, and maintaining in DMEM medium with 10% FBS for additional 72 hours. 25 μl of MTT indicator dye (5 mg/ml) was added to each well and the cells were incubated for 2 hours at 37° C. in the dark. 100 μl of 50% DMF-20% SDS solution was added to each well and kept overnight at 37° C. Absorption was measured at 570 nm in a microplate reader (SpectraMax® M5, Molecular Devices Co., USA) using wells without cells as blanks. […]
In general terms: Tetrazolium dyes change colour on reduction, which living cells bring about.

The conditions of series [3]: carboxylic groups; cited from earlier work.

Take `C=CCNC1=C2C[C@@H](C)C[C@H](OC)[C@H](O)[C@@H](C)/C=C(\C)[C@H](OC(N)=O)[C@@H](OC)/C=C\C=C(/C)C(=O)NC(=CC1=O)C2=O` [17-AAG, 17-N-allylamino-17-demethoxygeldanamycin]: in series [1], the Akt activation entry is recorded as “inhibited Ala activation” and the HER2 expression entry is given as “downregulation of HER2 expression”.
For the compound `COc1cccc2c1C(=O)c1c(O)c3c(c(O)c1C2=O)C[C@@](O)(C(=O)CO)C[C@@H]3O[C@H]1C[C@H](N)[C@H](O)[C@H](C)O1.Cl` [Free DOX, Doxorubicin hydrochloride], the “IC50 (DOX equivalents)” value came to 0.283 ± 0.049 µg/mL in series [2] (MCF-7, 6 hours incubation) and 0.046 ± 0.021 µg/mL in series [2] (MCF-7, 24 hours incubation).
As for `N[C@@H](CCC(=O)O)C(=O)O` [glutamic acid], the pKa entry in series [3] is reported as “ca. 4.4”.
